# Measurements as given in US5468772A, “Tripterinin compound and method” (Pharmagenesis, Inc., priority 1993, dated 1995).
# What was measured:
# Type in all cases: cell-based
# [1] = system: human peripheral blood lymphocytes; assay: Suppression of human PBL proliferation in vitro ([3H]thymidine incorporation), with or without anti-CD3 (X-35)
# Description: One measure of immunosuppression is suppression of stimulated peripheral blood lymphocyte (PBL) proliferation in vitro. In the assay detailed in Example 3, PBLs were activated in vitro by addition of anti-CD3 monoclonal antibody (X-35 antibody). At the same time, purified tripterinin or vehicle (control) was added to each culture, at selected concentrations. After 72 hours incubation, tritiated thymidine was added to the culture medium, and thymidine incorporation into DNA was assayed, as a measure of DNA synthesis associated with cell proliferation.
# The ability of tripterifordin to inhibit anti-CD3 stimulated PBL proliferation was assayed at concentrations of 0, 0.78, 3.13, and 12.5 μg/ml, with the results shown in FIG. 9.
# Human peripheral blood lymphocytes were prepared using an established method (Boyum). Human blood buffy coat samples, approximately 25 ml/donor, were obtained from the Stanford University Medical Center Blood Bank. Using sterile technique, the buffy coat samples were gently resuspended in a total volume of 100 ml with the addition of calcium and magnesium free Hank's balanced salt solution (HBSS, obtained from Gibco) at room temperature. A volume of 25 ml of the cell suspension was then layered onto 15 ml of Ficoll-Pacque (Pharmacia LKB Biotechnology, Inc.) in a 50 ml conical centrifuge tube. Tubes were centrifuged in a Beckman GPR tabletop centrifuge (GH-3.7 Rotor) at 400×g for 30 minutes at 15° C.
# Following centrifugation, the PBL suspensions at the interfaces were transferred to new 50 ml tubes using a transfer pipette, and the PBL samples were resuspended in a total volume of 45 ml HBSS and centrifuged at 354×g for 10 minutes at 15° C. Supernatants were discarded. PBL's were resuspended in 10 ml HBSS, combined to make a total of 45 ml HBSS, and centrifuged at 265×g for 10 minutes at 15° C. The cell pellets were suspended in 10 ml of X-Vivo tissue culture medium (Bio Whittaker) and counted using a hemocytometer. Tissue culture medium was then added to achieve a final cell concentration of 1× 10^6 cells/ml. Additional dilutions were carried out as required for each assay.
# Assays were carried out in 96 well sterile tissue culture plates (Costar 3790 and Costar 3595). A volume of 150 μl of X-Vivo medium or sterile distilled water was added to the outer wells of the plate to prevent evaporation of medium within the experimental wells. PBL's from 2 different donors were used in parallel in all experiments. A volume of 100 μl PBL suspension was added to each well using a multichannel pipette. Plates were incubated in an atmosphere of 93% air/7% CO2 in a tissue culture incubator at 37° C. X-35 (AMAC #0178), an anti CD-3 surface antigen antibody, was used at 5 ng/ml to stimulate PBL proliferation.
# Tripterinin or tripterifordin was dissolved in ethanol (10 mg/ml) and then diluted in sterile X-Vivo tissue culture medium to obtain the final concentrations required for each experiment.
# Four hours prior to the conclusion of incubation, 50 μl of X-Vivo tissue culture medium containing 8 μCi/ml [^3 H]Thymidine (Amersham, 49 Ci/mmol) was added to each tissue culture well. After 72 hours total incubation time, the cells were removed from the tissue culture wells and applied to filter paper using a cell harvester (Brandel Model MB-24). The filter paper was dried for one hour under a heat lamp and then cut into 1 cm discs. Each sample was placed in a scintillation vial containing 2 ml of scintillation fluid (Biosafe, Research Products International Corp.). Samples were counted in a Beckman LS 6000SC scintillation counter.
# [2] = system: cultured human PBLs and mouse thymocytes; assay: Cytotoxicity, trypan blue vital dye staining; details: up to 10 μg/ml
# Description: Potential cytotoxicity of tripterinin was assessed by measurement of the effect of the compound on reduction of MTT (3-[4,5-Dimethylthiazol-2-yl]-2,5-diphenyltetrazolium bromide) by cultured cells, an index of cellular respiration and a sensitive assay for the detection of cytotoxicity (Green, et al.). Toxicity was evaluated in vitro in human PBLs and in mouse thymocytes, as detailed in Example 7. Sodium azide was used as a cytotoxic control. Cytotoxicity was also assessed using the standard method of trypan blue dye staining.
# Cytotoxicity was assessed in cultured human PBLs and mouse thymocytes. A stock solution of MTT (Sigma), 5 mg MTT/ml phosphate buffered saline, pH 7.4, was prepared and stored in the dark at 4° C. Following 21 hours incubation under conditions identical to those above, 25 μl of MTT solution was added to each culture well. After an additional 3 hour incubation, the experiment was terminated by addition of a solution of 10% sodium dodecyl sulfate in 0.01N HCl. Following overnight incubation at 37° C. (to solubilize the formazan crystals, the MTT reduction product), optical density was determined at 570-650 nm in a Molecular Devices microtiter plate reader. Data are expressed as the ratio of the optical density of the tripterinin treated sample to that of untreated controls. […] The standard method of trypan blue vital dye staining was also used to assess toxicity.
# HT-2 cells = assay: Inhibition of IL-2 action: IL-2 stimulated HT-2 cell proliferation
# Description: Briefly, HT-2 cells were incubated in the presence of IL2, and in the presence of increasing concentrations of tripterinin. After 20 hours incubation, tritiated thymidine was added and the incubation carried out for an additional 4 hours. Cells were harvested and counted as described for PBL proliferation. […] Half maximal inhibition occurred at about 0.1 μg/ml.
# The effect of tripterinin on the action of IL-2 was assessed by measurement of the compound's ability to inhibit IL-2 stimulated growth of the IL-2 dependent cell line HT-2, a well-established biological assay of IL-2 action (O'Gara). HT-2 cells were cultured in 75 cm^2 (Corning) tissue culture flasks in RPMI 1640 medium containing 10% fetal bovine serum (Hyclone), 50 μM 2-mercaptoethanol (Fisher), 10 U/ml recombinant human IL-2 (Cetus), 20 mM HEPES, 2 mM glutamine, 100 U/ml penicillin and 100 μg/ml streptomycin. Cells were passaged every 2 days. For experiments, HT-2 cells were centrifuged at 180×g for 10 minutes, washed twice with 10 ml of IL-2 free culture medium and resuspended in RPMI 1640 medium prepared as above, except containing 5% fetal bovine serum. Final cell concentration was 1×10^4 /well. Cultures were incubated with varying concentrations of the tripterinin (95% air/5% CO2, 37° C.) for 20 hours. […] Cells were harvested and counted as described for the PBL proliferation assay.
smiles,measurement,setting,value
C[C@]12CCC[C@]3(COC1=O)[C@@H]2CC[C@@]12C[C@@H](CC[C@]13O)[C@](C)(O)C2 [tripterinin],inhibition of PBL proliferation,"[1]; 0.78 μg/ml tripterinin, unstimulated and anti-CD3 stimulated PBLs",substantially complete inhibition
same,Half maximal inhibition of PBL proliferation,"[1]; FIG. 8, 72 h",approximately 0.5 μg/ml
same,inhibitory effect on PBL proliferation,"[1]; stimulated and unstimulated (tripterinin), FIG. 9 (tripterifordin)",inhibited PBL proliferation
same,"inhibition of PBL proliferation, dose dependence",[1]; unstimulated and anti-CD3 stimulated PBLs,dose dependent inhibition
same,cytotoxicity (trypan blue staining),[2],consistent with those from the MTT reduction assay
same,cytotoxicity (trypan blue staining),[2]; listed as Tripterinin,no significant toxicity
same,fold inhibition of IL-2 induced DNA synthesis,HT-2 cells; concentration range 0 to 0.78 μg/ml,> 10 fold
same,fold decrease in IL-2 induced HT-2 cell proliferation (thymidine incorporation),HT-2 cells; tripterinin 0.4 μg/ml,more than 10 fold
